How the values were obtained:
[1] = system: lipoxygenase-15 (Soybean LOX-15); type: biochemical; details: ratio not defined in print; matches IC50 LOX-15/LOX-5
Procedure: Stock solutions (200 µM) of tested samples were prepared in DMSO. The stock solutions were further diluted with 50 mM Tris buffer of pH 7.7 to obtain concentrations of 0.01, 0.1, 1, 10 and 100 µM. The cells of a 96-well plate where distributed as follows: two wells taken as blanks (100 µL 50 mM Tris buffer pH 7.7), two wells taken as positive controls (90 µL of 15-LO Standard and 10 µL of DMSO) and two wells as 100% initial activity wells (90 µL lipoxygenase enzyme solution and 10 µL tris buffer). […] The 96-well plate was then incubated for 5 min at room temperature. The reaction was initiated by the addition of 10 µL of the substrate (arachidonic acid) to each well containing the mixtures. After shaking the 96-well plate on a shaker for 5 min, 100 µL of the chromogen (solution of equal volume developing reagent 1 and 2) was added to each well to stop enzyme catalysis and develop the reaction. The plate was again shaken for 5 min and the absorbance read at 490 nm in a Varioskan flash microplate spectrophotometer reader. The inhibitory concentration was expressed as a percentage using the formula below. […]
ASample is the absorbance of the reaction mixture of the test sample, ABlank sample is the absorbance of the reaction mixture containing all reagents except enzyme and AInitial activity is the absorbance of 100% initial activity.

[2] = system: breast cancer cell line MCF-7; test: MTT cytotoxicity assay, MCF-7; type: cell-based; details: Homo sapiens, MCF7; MTT assay, 24 h, preliminary; read-out: IC50 against MCF-7 cancer cell line
Procedure: (§2) Briefly, the cells were seeded in 96-well plate at a density of 20 × 10^3 cells per well and then incubated at 37 °C in 5% CO2 to allow cell attachment. […] An equal volume of medium was used as the control treatment. After treatment for 24 h, 10 μL MTT (5 mg/mL) was added to each well and the plate was further incubated for 4 h later. The supernatant was removed and 100 μL of DMSO was added to each well to dissolve the resulting formazan crystals. The absorbance was read at 570 nm using the Varioskan flash microplate spectrophotometer reader. The percentages of cell viability were used to determine the IC50 values.

[3] = target: T1, human lipoxygenase-5 (LOX-5) (Homo sapiens, UniProt P09917); test: Human LOX-5 inhibitory assay; type: biochemical; details: human LOX-5, duplicate
T1 construct: purchased BioVision K980
T1 sequence (P09917 1-674): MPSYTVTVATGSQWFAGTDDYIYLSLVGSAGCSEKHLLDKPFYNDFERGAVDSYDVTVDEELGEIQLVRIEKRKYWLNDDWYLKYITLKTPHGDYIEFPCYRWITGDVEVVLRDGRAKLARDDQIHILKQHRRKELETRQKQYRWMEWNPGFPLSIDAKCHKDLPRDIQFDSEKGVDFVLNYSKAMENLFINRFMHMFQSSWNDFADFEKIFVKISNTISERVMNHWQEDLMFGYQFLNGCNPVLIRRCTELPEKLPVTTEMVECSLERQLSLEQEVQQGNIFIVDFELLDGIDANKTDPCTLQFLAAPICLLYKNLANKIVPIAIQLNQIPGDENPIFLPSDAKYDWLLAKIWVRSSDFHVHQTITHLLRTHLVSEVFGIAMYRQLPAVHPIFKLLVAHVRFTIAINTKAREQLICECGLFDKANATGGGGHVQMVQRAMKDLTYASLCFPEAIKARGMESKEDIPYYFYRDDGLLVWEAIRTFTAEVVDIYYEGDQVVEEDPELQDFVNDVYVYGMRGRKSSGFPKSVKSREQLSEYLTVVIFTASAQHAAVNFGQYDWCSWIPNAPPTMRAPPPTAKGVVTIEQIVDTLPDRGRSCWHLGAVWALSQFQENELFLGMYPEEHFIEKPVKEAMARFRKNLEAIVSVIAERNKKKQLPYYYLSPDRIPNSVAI
Procedure: The reagents were prepared according to the Lipoxygenase inhibitor screening kit (Item No. K980; BioVision, Milpitas Blvd, Milpitas, CA, USA) standard protocol. […] The cells of a 96-well plate where distributed as follows: two wells were taken as blanks (100 µL of assay buffer), two wells enzyme controls (90 µL of 15-LO Standard and 10 µL of tris buffer), two wells as 100% initial activity wells (90 µL and 10 µL DMSO) and three wells as enzyme control (40 µL). […] Forty µL of the reaction mixture (prepared by mixing thoroughly 36 µL of LOX assay buffer, 2 µL of LOX probe and 2 µL of 5-LOX enzyme) were added to each well and incubated for 10 min. at RT. The DMSO concentration in each reaction well was 1% to prevent enzyme structural deformation and therefore, reduced activity. […] The percentage inhibition (%) was calculated using the equation below. (4) % Inhibition=Control−Test/Control×100.

BChE [4] = target: T2, BChE (Homo sapiens, UniProt P06276); test: biochemical
T2 construct: purchased cloud-clone corp., purchased through BIOCOM Africa (Pty) Ltd. RPC348Hu0 2_100
T2 sequence (P06276 29-602): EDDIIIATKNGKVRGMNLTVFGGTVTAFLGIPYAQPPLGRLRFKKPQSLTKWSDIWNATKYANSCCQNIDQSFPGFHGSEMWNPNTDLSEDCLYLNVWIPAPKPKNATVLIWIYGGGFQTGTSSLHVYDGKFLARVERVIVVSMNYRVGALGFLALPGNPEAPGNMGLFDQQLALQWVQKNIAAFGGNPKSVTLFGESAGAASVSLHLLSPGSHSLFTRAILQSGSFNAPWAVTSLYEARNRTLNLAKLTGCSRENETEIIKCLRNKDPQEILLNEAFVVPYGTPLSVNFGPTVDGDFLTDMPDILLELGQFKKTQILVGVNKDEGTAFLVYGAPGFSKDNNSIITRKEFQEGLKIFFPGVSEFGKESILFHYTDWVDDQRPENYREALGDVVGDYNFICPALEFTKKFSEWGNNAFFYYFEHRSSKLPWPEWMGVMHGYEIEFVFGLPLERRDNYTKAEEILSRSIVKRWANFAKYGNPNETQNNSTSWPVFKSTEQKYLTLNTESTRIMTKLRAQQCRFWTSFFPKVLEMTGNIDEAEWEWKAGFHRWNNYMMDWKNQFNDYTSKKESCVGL
Procedure: The mixtures were incubated for 15 min at RT. The reaction was initiated by adding of 10 µL of mixture solution of 5 mM 5,50-dithio-bis-nitrobenzoic acid (DTNB) in 50 mM tris buffer (pH 7.7) and 10 µL acetylthiocholine (ASCh; 5 mM) in 50 mM tris buffer, pH 7.7 into the wells containing the mixtures. The hydrolysis of ASCh was determined by monitoring the formation of the yellow 5-thio-2-nitrobenzoate anion resulting from reaction of DTNB with thiocholines (SCh).
The IC50 values were determined graphically from inhibition curves (inhibitor concentration and absorbance) using the graph pad prism.

BChE [5] = target: T2, BChE; test: Kinetic studies against BChE (Lineweaver–Burk and Dixon plots); type: biochemical
Procedure: (§1) Compounds 2f, 2b, 2f, 3b, 3d and 3f were selected for the kinetic studies with substrate concentrations 0.1, 0.5, 2. 5 and 5 µM for ChEs following procedures described in our previous investigation. The Lineweaver–Burk plots (plots of the inverse of velocity (1/v) against the inverse of the substrate concentration (1/[S])) were used to ascertain the mode of inhibition of these compounds.

AChE [6] = target: T3, AChE (Homo sapiens, UniProt P22303); test: biochemical
T3 construct: purchased BL, purchased through BIOCOM Africa (Pty) Ltd. 768104
T3 sequence (P22303 32-614): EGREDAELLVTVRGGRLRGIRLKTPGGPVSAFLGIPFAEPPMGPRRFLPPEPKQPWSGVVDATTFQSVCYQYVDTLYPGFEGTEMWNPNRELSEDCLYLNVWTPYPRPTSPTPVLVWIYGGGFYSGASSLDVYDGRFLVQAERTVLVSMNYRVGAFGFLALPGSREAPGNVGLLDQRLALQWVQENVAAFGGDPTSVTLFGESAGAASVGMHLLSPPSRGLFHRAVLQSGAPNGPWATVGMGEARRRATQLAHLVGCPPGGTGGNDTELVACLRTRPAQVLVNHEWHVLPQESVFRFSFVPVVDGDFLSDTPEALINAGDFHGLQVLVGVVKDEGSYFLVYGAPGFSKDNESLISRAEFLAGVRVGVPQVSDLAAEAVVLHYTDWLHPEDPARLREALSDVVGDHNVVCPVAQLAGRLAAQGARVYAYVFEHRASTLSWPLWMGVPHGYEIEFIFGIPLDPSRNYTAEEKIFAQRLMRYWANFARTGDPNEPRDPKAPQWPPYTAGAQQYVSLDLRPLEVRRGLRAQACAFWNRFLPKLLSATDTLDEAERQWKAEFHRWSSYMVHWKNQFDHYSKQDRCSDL

β-secretase (BACE-1) = target: T4, β-secretase (BACE-1) (Homo sapiens, UniProt P56817); test: Kinetic studies against β-secretase (Lineweaver–Burk and Dixon plots); type: biochemical
T4 construct: purchased Pan Vera; host or cells: baculovirus-expressed
T4 sequence (P56817 46-501): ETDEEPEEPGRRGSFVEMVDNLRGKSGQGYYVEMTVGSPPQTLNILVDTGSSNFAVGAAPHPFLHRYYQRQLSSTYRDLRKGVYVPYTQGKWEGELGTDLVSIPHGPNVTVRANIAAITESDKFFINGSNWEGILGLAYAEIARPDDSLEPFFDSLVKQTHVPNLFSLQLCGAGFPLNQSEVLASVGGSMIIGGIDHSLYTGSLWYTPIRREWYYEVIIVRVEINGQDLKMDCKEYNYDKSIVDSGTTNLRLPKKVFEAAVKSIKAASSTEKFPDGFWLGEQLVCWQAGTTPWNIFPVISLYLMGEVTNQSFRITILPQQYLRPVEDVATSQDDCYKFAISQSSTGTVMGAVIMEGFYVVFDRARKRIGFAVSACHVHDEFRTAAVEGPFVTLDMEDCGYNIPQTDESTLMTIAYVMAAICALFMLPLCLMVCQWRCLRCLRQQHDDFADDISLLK
Procedure: Compound 2f was selected for the kinetic studies with substrate concentrations 150, 300 and 450 nM for β-secretase following procedure described in our previous investigation. The Lineweaver–Burk plot (plot of the inverse of velocity (1/v) against the inverse of the substrate concentration (1/[S])) was used to ascertain the mode of inhibition of this compound.

[7] = DPPH radical scavenging activity assay; details: triplicate, preliminary
Procedure: DPPH radical scavenging activity of compounds 2b, 2f, 3b, 3d and 3f was evaluated following the literature method. Ascorbic acid (Sigma Aldrich, Saint Louis, Missouri, USA) was used as a positive control. The test compounds and controls at various concentrations ranging from (0 µM to 40 µM) in DMSO were mixed with a solution of DPPH (0.20 mM) in methanol. The mixtures were incubated in the dark for 45 min and the absorbances were recorded at 512 nm using Varioskan flash microplate spectrophotometer reader. All tests and analyses were run in triplicate and averaged. The inhibition was calculated in terms of percentage using the formula below:(5) DPPH radical scavenged (%)=AbC−AbS/AbC×100, where AbC is absorbance of control and AbS the absorbance of the test sample.

AChE [8] = target: T3, AChE; test: Kinetic studies against AChE (Lineweaver–Burk and Dixon plots); type: biochemical
Procedure: as §1

Hek293-T cells = test: MTT cytotoxicity assay, Hek293-T; type: cell-based; details: 24 h, till 50 μM
Procedure: as §2

human recombinant BACE-1 = target: T5, human recombinant BACE-1 (Homo sapiens, UniProt P56817); test: β-secretase FRET inhibitory assay; type: biochemical; details: triplicate
T5 construct: purchased Pan Vera; host or cells: baculovirus-expressed
T5 sequence (P56817 46-501): as above

[9] = Lineweaver–Burk and Dixon plots

**Q.** Which “SI (LOX-15 vs LOX-5)” value [1] does the source give for `COc1ccc(-c2cc3cc4c(=O)c(C=O)coc4cc3o2)cc1` [Compound 2f, 2-(4-Methoxyphenyl)-5-oxo-5H-furo[3,2-g]chromene-6-carbaldehyde] here?
**A.** 0.63

**Q.** And the IC50 [2]?
**A.** 8.65 ± 0.03 µM

**Q.** And the IC50 [3]?
**A.** 15.3 ± 0.01 µM

**Q.** What about the IC50 (BChE [4]; Ellman's method, triplicate) of the same compound?
**A.** 5.1 ± 0.02 µM

**Q.** What about the “SI AChE/BChE” value (BChE [4]; Selectivity index IC50 (AChE)/IC50 (BChE)) of the same compound?
**A.** 1.85

**Q.** What about the Ki (BChE [5]; Dixon plots) of the same compound?
**A.** 3.9 ± 0.01 µM

**Q.** What about the “mode of inhibition against BChE” value (BChE [5]; [9]) of the same compound?
**A.** non-competitive

**Q.** And the IC50 (AChE [6])?
**A.** 9.4 ± 0.01 µM

**Q.** What about the “SI BChE/AChE” value (AChE [6]; Selectivity index IC50 (BChE)/IC50 (AChE)) of the same compound?
**A.** 0.54

**Q.** And the Ki (β-secretase (BACE-1); Dixon plot)?
**A.** 1.49 ± 0.01 µM

**Q.** What about the “mode of inhibition against β-secretase” value (β-secretase (BACE-1); [9]) of the same compound?
**A.** mixed mode of inhibition

**Q.** And the IC50 [7]?
**A.** 18.1 ± 0.03 µM

**Q.** And the Ki (AChE [8]; Dixon plots)?
**A.** 1.34 ± 0.02 µM

**Q.** And the “mode of inhibition against AChE” value (AChE [8]; [9])?
**A.** competitive

**Q.** What about the “Vmax against AChE” value (AChE [8]; Lineweaver–Burk plots, increasing inhibitor concentration) of the same compound?
**A.** 0.03 ± 0.018

**Q.** And the “toxicity in Hek293-T cells” value (Hek293-T cells)?
**A.** did not show any major toxicity

**Q.** What about the IC50 (human recombinant BACE-1) of the same compound?
**A.** 15.4 ± 0.02 µM

— PMC6862662, “In Vitro Evaluation and Docking Studies of 5-oxo-5H-furo[3,2-g]chromene-6-carbaldehyde Derivatives as Potential Anti-Alzheimer’s Agents” (International Journal of Molecular Sciences, 2019)
